Assay results as given in ChEMBL document CHEMBL3217485, “Understanding and overcoming aminoglycoside resistance caused by N-6'-acetyltransferase” (Medchemcomm, 2012).
≈ marks a conversion by molar mass, not a printed value. Each block holds one compound with its values, some of them ahead of it. Calls of active or inactive are those of the source. The rule behind the calls is not given here. Where a SMILES comes first, the peptide text is derived from it. [ ]: non-standard residue; d: D form. Orn = NCCC[C@H](N)C(=O)O

Columns and labels:
[1] = molecular target: Aac(6')-Ii protein (Enterococcus faecium, UniProt Q47764); test: Inhibition of Enterococcus faecium AAC(6')-li
Aac(6')-Ii protein, sequence (Q47764 whole entry): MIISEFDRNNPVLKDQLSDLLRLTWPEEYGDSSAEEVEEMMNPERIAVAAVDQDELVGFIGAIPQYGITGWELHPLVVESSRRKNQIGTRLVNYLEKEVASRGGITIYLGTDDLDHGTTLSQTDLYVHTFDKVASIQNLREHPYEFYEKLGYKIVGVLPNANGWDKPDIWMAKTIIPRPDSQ

[2] = tested on: Pseudomonas aeruginosa; test: Antibacterial activity against kanamycin-resistant Pseudomonas aeruginosa GN315 expressing AAC(6') enzyme; format: functional
[3] = tested on: Escherichia coli; test: Antibacterial activity against kanamycin-resistant Escherichia coli K-12 R5 expressing AAC(6') enzyme; format: functional
[4] = Activity at AAC(6')-li (unknown origin)
[5] = Binding affinity to AAC(6')-lb (unknown origin)
[6] = Inhibition of AAC(6')-li (unknown origin)
[7] = Inhibition of AAC(6')-le (unknown origin)
[8] = Ratio of Kcat to Km for AAC(6')-li (unknown origin)
[9] = tested on: Escherichia coli; test: Antibacterial activity against Escherichia coli ATCC 25922; format: functional
[10] = Binding affinity to biotinylated Escherichia coli 16S rRNA A-site

Compound: CNC[C@H]1O[C@H](O[C@H]2[C@H](O)[C@@H](O[C@@H]3O[C@@H](CO)[C@H](O)[C@@H](N)[C@@H]3O)[C@H](NC(=O)[C@@H](O)CCN)C[C@@H]2N)[C@H](O)[C@@H](O)[C@@H]1O
MIC [2]: 25 µg/mL (≈ 41.7 µM)
MIC [3]: 1.56 µg/mL (≈ 2.6 µM)

Compound: N[C@H]1[C@@H](O[C@H]2[C@H](O)[C@@H](O)[C@H](N)C[C@@H]2N)O[C@H](CNC(=O)CO)[C@@H](O)[C@@H]1O
Km [4]: > 500 µM

Compound: CNC[C@H]1O[C@H](O[C@H]2[C@H](O)[C@@H](O[C@@H]3O[C@@H](CO)[C@H](O)[C@@H](N)[C@@H]3O)[C@H](N)C[C@@H]2N)[C@H](O)[C@@H](O)[C@@H]1O
MIC [2]: > 100 µg/mL
MIC [3]: 1.56 µg/mL (≈ 3.13 µM)

Compound: NC[C@@H]1CC[C@@H](N)[C@@H](O[C@H]2[C@H](O)[C@@H](O[C@H]3O[C@H](CO)[C@@H](O)[C@H](N)[C@H]3O)[C@H](N)C[C@@H]2N)O1 [DIBEKACIN]
MIC [2]: > 100 µg/mL
MIC [3]: 25 µg/mL (≈ 55.4 µM)

Compound: CCNC[C@H]1O[C@H](O[C@H]2[C@H](O)[C@@H](O[C@@H]3O[C@@H](CO)[C@H](O)[C@@H](N)[C@@H]3O)[C@H](NC(=O)[C@@H](O)CCN)C[C@@H]2N)[C@H](O)[C@@H](O)[C@@H]1O
MIC [2]: 100 µg/mL (≈ 163 µM)
MIC [3]: 1.56 µg/mL (≈ 2.54 µM)

Compound: NC[C@H]1O[C@H](O[C@H]2[C@H](OCC(=O)NCCCCCNC(=O)CO[C@@H]3[C@@H](O)[C@H](N)C[C@H](N)[C@H]3O[C@H]3O[C@H](CN)[C@@H](O)[C@H](O)[C@H]3N)[C@@H](O)[C@H](N)C[C@@H]2N)[C@H](N)[C@@H](O)[C@@H]1O
Km [4]: 83.6 µM
kcat [4]: 1.89 s⁻¹
kcat/Km [8]: 2.26 ×10⁴ /M/s
MIC [9]: 125 µM (≈ 103 µg/mL)
Kd [10]: 0.8 µM

Compound: N[C@H]1C[C@H](Oc2ccccc2[N+](=O)[O-])[C@@H](N)C1
Kd [5]: 23 µM

Compound: NC[C@@H]1O[C@@H](O[C@H]2[C@H](O)[C@@H](O[C@H]3O[C@H](CO)[C@@H](O)[C@H](N)[C@H]3O)[C@H](N)C[C@@H]2N)[C@@H](O)[C@H](O)[C@H]1O [KANAMYCIN A]
MIC [2]: > 100 µg/mL
MIC [3]: 25 µg/mL (≈ 51.6 µM)

Compound: CC(C)(CO)[C@@H](O)C(=O)NCCC(=O)NCCSCCC(=O)NC[C@H]1O[C@H](O[C@H]2[C@H](O)[C@@H](O)[C@H](N)C[C@@H]2N)[C@H](N)[C@@H](O)[C@@H]1O
Ki [1]: ≥ 500 µM

Compound: CC(=O)CC(=O)N(CCc1ccccc1)CC(C)(C)[C@@H](O)C(=O)NCCC(=O)NCCSCC(=O)NC[C@H]1O[C@H](O[C@H]2[C@H](O)[C@@H](O)[C@H](N)C[C@@H]2N)[C@H](N)[C@@H](O)[C@@H]1O
Ki [1]: ≥ 200 µM

Compound: CC(C)C[C@@H]1NC(=O)[C@H](CCCN)NC(=O)[C@H](C(C)C)NC(=O)[C@@H]2CCCN2C(=O)[C@@H](Cc2ccccc2)NC(=O)[C@H](CC(C)C)NC(=O)[C@H](CCCN)NC(=O)[C@H](C(C)C)NC(=O)[C@@H]2CCCN2C(=O)[C@@H](Cc2ccccc2)NC1=O [GRAMICIDIN S] (cyclo(L[dF]PV[Orn]L[dF]PV[Orn]))
IC50 [7]: 14 µM
inhibition [6]: inactive

Compound: CNC[C@@H]1CC[C@@H](N)[C@@H](O[C@H]2[C@H](O)[C@@H](O[C@@H]3O[C@@H](CO)[C@H](O)[C@@H](N)[C@@H]3O)[C@H](N)C[C@@H]2N)O1
MIC [2]: 12.5 µg/mL (≈ 26.9 µM)
MIC [3]: 1.56 µg/mL (≈ 3.35 µM)

Compound: CC[C@H](C)[C@H](NC(=O)[C@H](CC(C)C)NC(=O)[C@H](C)NC(=O)[C@@H]1CCCN1C(=O)[C@H](CC(C)C)NC(=O)CNC(=O)[C@@H](NC(=O)[C@@H](NC(=O)[C@H](CC(C)C)NC(=O)[C@@H](NC(=O)[C@H](CCCCN)NC(=O)[C@H](CCCCN)NC(=O)[C@@H](NC(=O)[C@H](C)NC(=O)[C@@H](NC(=O)[C@@H](NC(=O)[C@H](CC(C)C)NC(=O)[C@H](CCCCN)NC(=O)[C@H](CCCCN)NC(=O)[C@@H](NC(=O)[C@H](Cc1ccccc1)NC(=O)[C@H](CO)NC(=O)[C@H](CCCCN)NC(=O)[C@H](Cc1c[nH]c2ccccc12)NC(=O)[C@@H](N)CCCCN)[C@@H](C)CC)[C@@H](C)O)[C@@H](C)O)C(C)C)C(C)C)[C@@H](C)O)[C@@H](C)O)C(=O)N[C@@H](CO)C(=O)O
IC50 [7]: 21 µM
inhibition [6]: inactive

Compound: CC(C)(COP(=O)(O)OP(=O)(O)OC[C@H]1O[C@@H](n2cnc3c(N)ncnc32)[C@H](O)[C@@H]1OP(=O)(O)O)[C@@H](O)C(=O)NCCC(=O)NCCSCCC(=O)NC[C@H]1O[C@H](O[C@H]2[C@H](O)[C@@H](O)[C@H](N)C[C@@H]2N)[C@H](N)[C@@H](O)[C@@H]1O
Ki [6]: 0.043 µM

Compound: CC(C)C[C@H](NC(=O)[C@H](CCCNC(=N)N)NC(=O)CNC(=O)CNC(=O)[C@@H](N)CCCNC(=N)N)C(=O)N[C@@H](CS)C(=O)N[C@@H](Cc1ccc(O)cc1)C(=O)N[C@@H](CS)C(=O)N[C@@H](CCCNC(=N)N)C(=O)N[C@@H](CCCNC(=N)N)C(=O)N[C@@H](CCCNC(=N)N)C(=O)N[C@@H](Cc1ccccc1)C(=O)N[C@@H](CS)C(=O)N[C@H](C(=O)N[C@@H](CS)C(=O)N[C@H](C(=O)NCC(=O)N[C@@H](CCCNC(=N)N)C(=O)O)C(C)C)C(C)C (H-RGGRLCYCRRRFCVCVGR-OH)
inhibition [7]: inactive
inhibition [6]: inactive

Compound: CC(C)(COP(=O)(O)OP(=O)(O)OC[C@H]1O[C@@H](n2cnc3c(N)ncnc32)[C@H](O)[C@@H]1OP(=O)(O)O)[C@@H](O)C(=O)NCCC(=O)NCCSCCCCC(=O)NC[C@H]1O[C@H](O[C@H]2[C@H](O)[C@@H](O)[C@H](N)C[C@@H]2N)[C@H](N)[C@@H](O)[C@@H]1O
Ki [6]: 8 µM

Compound: CC(C)(CO)[C@@H](O)C(=O)NCCC(=O)NCCSCCCCCC(=O)NC[C@H]1O[C@H](O[C@H]2[C@H](O)[C@@H](O)[C@H](N)C[C@@H]2N)[C@H](N)[C@@H](O)[C@@H]1O
Ki [1]: ≥ 500 µM

Compound: H-ILAWKWAWWAWRR-OH
inhibition [7]: inactive
IC50 [6]: 4.4 µM

Compound: H-KWKKFIKSLTKAAKTVVKTAKKPLIV-OH
inhibition [7]: inactive
IC50 [6]: 24 µM

Second part, the compound after the results:

Ki [1]: ≥ 500 µM
Compound: CC(C)(CO)[C@@H](O)C(=O)NCCC(=O)NCCSCC(=O)NC[C@H]1O[C@H](O[C@H]2[C@H](O)[C@@H](O)[C@H](N)C[C@@H]2N)[C@H](N)[C@@H](O)[C@@H]1O

Ki [1]: ≥ 1000 µM
Compound: CC(C)(COC(=O)CCC(=O)O)[C@@H](O)C(=O)NCCC(=O)NCCSCC(=O)NC[C@H]1O[C@H](O[C@H]2[C@H](O)[C@@H](O)[C@H](N)C[C@@H]2N)[C@H](N)[C@@H](O)[C@@H]1O

Ki [1]: ≥ 200 µM
Compound: CC(=O)CC(=O)N(Cc1ccccc1)CC(C)(C)[C@@H](O)C(=O)NCCC(=O)NCCSCC(=O)NC[C@H]1O[C@H](O[C@H]2[C@H](O)[C@@H](O)[C@H](N)C[C@@H]2N)[C@H](N)[C@@H](O)[C@@H]1O

Kd [5]: 57 µM
Compound: Nc1cccc(C(=O)O[C@H]2C[C@H](N)C[C@@H]2N)c1

Ki [6]: 0.076 µM
Compound: CC(C)(COP(=O)(O)OP(=O)(O)OC[C@H]1O[C@@H](n2cnc3c(N)ncnc32)[C@H](O)[C@@H]1OP(=O)(O)O)[C@@H](O)C(=O)NCCC(=O)NCCSCC(=O)NC[C@H]1O[C@H](O[C@H]2[C@H](O)[C@@H](O)[C@H](N)C[C@@H]2N)[C@H](N)[C@@H](O)[C@@H]1O

Ki [1]: ≥ 200 µM
Compound: CC(=O)CC(=O)NCC(C)(C)[C@@H](O)C(=O)NCCC(=O)NCCSCC(=O)NC[C@H]1O[C@H](O[C@H]2[C@H](O)[C@@H](O)[C@H](N)C[C@@H]2N)[C@H](N)[C@@H](O)[C@@H]1O

inhibition [7]: inactive
IC50 [6]: 13 µM
Compound: CC[C@H](C)[C@H](N)C(=O)N[C@@H](CC(C)C)C(=O)N1CCC[C@H]1C(=O)N[C@@H](Cc1c[nH]c2ccccc12)C(=O)N[C@@H](CCCCN)C(=O)N[C@@H](Cc1c[nH]c2ccccc12)C(=O)N1CCC[C@H]1C(=O)N[C@@H](Cc1c[nH]c2ccccc12)C(=O)N[C@@H](Cc1c[nH]c2ccccc12)C(=O)N1CCC[C@H]1C(=O)N[C@@H](Cc1c[nH]c2ccccc12)C(=O)N[C@@H](CCCN=C(N)N)C(=O)N[C@@H](CCCN=C(N)N)C(N)=O

Kd [5]: 41 µM
Compound: N[C@@H]1C[C@H](N)[C@@H](O)C1

Ki [1]: ≥ 500 µM
Compound: CC(C)(CO)[C@@H](O)C(=O)NCCC(=O)NCCSCCCCC(=O)NC[C@H]1O[C@H](O[C@H]2[C@H](O)[C@@H](O)[C@H](N)C[C@@H]2N)[C@H](N)[C@@H](O)[C@@H]1O

Kd [5]: 20 µM
Compound: N#Cc1ccc(O[C@H]2C[C@H](N)C[C@@H]2N)cc1

inhibition [7]: inactive
IC50 [6]: 23 µM
Compound: H-ILKKWPWWPWRRK-OH

Ki [6]: 5.2 µM
Compound: CC(C)(COP(=O)(O)OP(=O)(O)OC[C@H]1O[C@@H](n2cnc3c(N)ncnc32)[C@H](O)[C@@H]1OP(=O)(O)O)[C@@H](O)C(=O)NCCC(=O)NCCSCCCCCC(=O)NC[C@H]1O[C@H](O[C@H]2[C@H](O)[C@@H](O)[C@H](N)C[C@@H]2N)[C@H](N)[C@@H](O)[C@@H]1O

IC50 [7]: 38 µM
inhibition [6]: inactive
Compound: H-KWKSFIKKLTSAAKKVTTAAKPLTK-OH

Ki [6]: 0.161 µM
Compound: CC(C)(COP(=O)(O)OP(=O)(O)OC[C@H]1O[C@@H](n2cnc3c(N)ncnc32)[C@H](O)[C@@H]1OP(=O)(O)O)[C@@H](O)C(=O)NCCC(=O)NCCSCCCC(=O)NC[C@H]1O[C@H](O[C@H]2[C@H](O)[C@@H](O)[C@H](N)C[C@@H]2N)[C@H](N)[C@@H](O)[C@@H]1O

Ki [1]: ≥ 500 µM
Compound: CC(C)(CO)[C@@H](O)C(=O)NCCC(=O)NCCSCCCC(=O)NC[C@H]1O[C@H](O[C@H]2[C@H](O)[C@@H](O)[C@H](N)C[C@@H]2N)[C@H](N)[C@@H](O)[C@@H]1O

Ki [1]: ≥ 200 µM
Compound: CC(=O)CC(=O)N(CCCc1ccccc1)CC(C)(C)[C@@H](O)C(=O)NCCC(=O)NCCSCC(=O)NC[C@H]1O[C@H](O[C@H]2[C@H](O)[C@@H](O)[C@H](N)C[C@@H]2N)[C@H](N)[C@@H](O)[C@@H]1O

Km [4]: > 500 µM
Compound: NCC(=O)NC[C@H]1O[C@H](O[C@H]2[C@H](O)[C@@H](O)[C@H](N)C[C@@H]2N)[C@H](N)[C@@H](O)[C@@H]1O
